The values that follow are results of earlier work, collected in patent US9095515B2, “Ezetimibe compositions” (Sanovel Ilac Sanayi Ve Ticaret Anonim Sirketi, priority 2009, dated 2015).

Molecules are shown by their SMILES.

For the data set the following is noted: reported.

For `O=C1[C@H](CC[C@H](O)c2ccc(F)cc2)[C@@H](c2ccc(O)cc2)N1c1ccc(F)cc1` [Ezetimibe, (3R,4S)-1-(4-fluorophenyl)-3-[(3S)-3-(4-fluorophenyl)-3-hydroxypropyl]-4-(4-hydroxyphenyl)azetidin-2-one], the solubility in water result is reported as “practically insoluble”.
